Source: paper PMC4961579 (Journal of neurochemistry, 2016)

Legend:
Assay in all cases: two-electrode voltage clamp, micro-transplanted oocytes
Type in all cases: cell-based
[1] = target: AMPA receptor with TARP gamma-8 (native, rat hippocampal synaptosomes) (Rattus norvegicus, UniProt P19490+P19491+Q8VHW5); conditions: read-out: % inhibition at 10 μM
[2] = tested on: NMDA receptor (native synaptic, rat prefrontal cortex synaptosomes); conditions: 300 µM NMDA, 30 µM glycine, -100 mV, pH 7.4
[3] = tested on: AMPA receptor (native synaptic, human cortical synaptosomes); conditions: antagonist; 100 µM AMPA + 100 µM cyclothiazide; -100 mV, pH 7.4
[4] = tested on: AMPA receptor (native synaptic, rat prefrontal cortex synaptosomes); conditions: antagonist; 100 µM AMPA + 30 µM cyclothiazide; -100 mV, pH 7.4
[5] = tested on: GABAA receptor (native synaptic, human cortical synaptosomes); conditions: positive allosteric modulator; 30 µM GABA; legend says 212% potentiation

AMPA receptor with TARP gamma-8 (native, rat hippocampal synaptosomes), sequence (Q8VHW5 whole entry): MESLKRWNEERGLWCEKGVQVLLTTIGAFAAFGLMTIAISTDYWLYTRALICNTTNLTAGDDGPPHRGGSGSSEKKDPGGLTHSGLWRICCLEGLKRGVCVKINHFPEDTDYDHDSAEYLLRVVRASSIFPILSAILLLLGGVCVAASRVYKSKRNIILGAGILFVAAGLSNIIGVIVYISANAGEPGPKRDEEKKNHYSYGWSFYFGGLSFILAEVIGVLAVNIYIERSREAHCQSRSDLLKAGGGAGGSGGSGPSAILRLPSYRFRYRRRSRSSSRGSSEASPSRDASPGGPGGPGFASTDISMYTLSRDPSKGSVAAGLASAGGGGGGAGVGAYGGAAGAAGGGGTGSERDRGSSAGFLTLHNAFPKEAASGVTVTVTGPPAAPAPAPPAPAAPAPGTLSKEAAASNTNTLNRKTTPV
AMPA receptor with TARP gamma-8 (native, rat hippocampal synaptosomes), sequence (P19490 19-907): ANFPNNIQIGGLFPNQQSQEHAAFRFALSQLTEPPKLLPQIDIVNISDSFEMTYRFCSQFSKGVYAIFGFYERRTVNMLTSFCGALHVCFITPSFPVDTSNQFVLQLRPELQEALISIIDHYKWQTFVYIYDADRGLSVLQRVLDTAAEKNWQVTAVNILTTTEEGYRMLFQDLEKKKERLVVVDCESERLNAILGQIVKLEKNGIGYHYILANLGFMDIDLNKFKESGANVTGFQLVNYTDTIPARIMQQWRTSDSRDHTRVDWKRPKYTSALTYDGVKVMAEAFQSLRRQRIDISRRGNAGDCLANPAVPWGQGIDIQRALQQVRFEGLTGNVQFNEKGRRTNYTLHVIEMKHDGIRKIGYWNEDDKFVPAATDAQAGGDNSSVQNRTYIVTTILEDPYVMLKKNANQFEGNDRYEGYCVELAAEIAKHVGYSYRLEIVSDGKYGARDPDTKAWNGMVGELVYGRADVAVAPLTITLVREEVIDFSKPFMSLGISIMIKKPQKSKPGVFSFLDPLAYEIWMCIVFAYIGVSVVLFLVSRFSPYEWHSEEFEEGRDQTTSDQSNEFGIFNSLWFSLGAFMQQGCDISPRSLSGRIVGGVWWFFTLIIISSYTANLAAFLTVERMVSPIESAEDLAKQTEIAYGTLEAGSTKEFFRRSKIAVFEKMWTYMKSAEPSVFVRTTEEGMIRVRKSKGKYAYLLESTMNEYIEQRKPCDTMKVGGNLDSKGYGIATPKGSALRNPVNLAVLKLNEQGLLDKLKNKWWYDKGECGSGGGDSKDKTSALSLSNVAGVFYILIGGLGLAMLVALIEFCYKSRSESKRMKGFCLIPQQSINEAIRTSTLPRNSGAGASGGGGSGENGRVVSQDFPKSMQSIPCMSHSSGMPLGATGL
AMPA receptor with TARP gamma-8 (native, rat hippocampal synaptosomes), sequence (P19491 22-883): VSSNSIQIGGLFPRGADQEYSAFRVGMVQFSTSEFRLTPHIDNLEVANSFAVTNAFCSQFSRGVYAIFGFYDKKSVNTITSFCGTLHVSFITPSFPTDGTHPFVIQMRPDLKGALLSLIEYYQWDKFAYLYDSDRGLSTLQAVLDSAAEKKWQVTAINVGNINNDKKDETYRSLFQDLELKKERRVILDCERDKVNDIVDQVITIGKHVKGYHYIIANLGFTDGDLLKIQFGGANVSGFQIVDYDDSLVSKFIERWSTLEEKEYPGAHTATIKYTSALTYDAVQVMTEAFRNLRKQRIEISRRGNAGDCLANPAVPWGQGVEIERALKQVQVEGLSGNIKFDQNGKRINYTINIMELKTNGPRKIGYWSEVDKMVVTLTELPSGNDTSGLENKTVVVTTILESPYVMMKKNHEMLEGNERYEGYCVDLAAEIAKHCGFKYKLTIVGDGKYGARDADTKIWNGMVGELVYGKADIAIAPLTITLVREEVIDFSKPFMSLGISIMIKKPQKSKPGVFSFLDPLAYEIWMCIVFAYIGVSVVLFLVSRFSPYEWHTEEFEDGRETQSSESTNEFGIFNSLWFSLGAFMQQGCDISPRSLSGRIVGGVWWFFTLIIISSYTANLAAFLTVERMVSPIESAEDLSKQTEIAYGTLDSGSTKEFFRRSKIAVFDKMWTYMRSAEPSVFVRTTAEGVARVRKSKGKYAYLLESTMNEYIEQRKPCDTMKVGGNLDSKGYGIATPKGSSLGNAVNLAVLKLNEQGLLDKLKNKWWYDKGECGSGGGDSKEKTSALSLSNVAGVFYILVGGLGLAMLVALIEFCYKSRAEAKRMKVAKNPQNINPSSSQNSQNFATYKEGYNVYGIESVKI

Q: For `C[C@@H](c1ccc2[nH]c(=O)sc2c1)c1ccn(-c2ccc(OCCO)cn2)n1` [LY3130481], which inhibition at 10 µM [1] is on record?
A: The inhibition at 10 µM was 55 ± 6.8%.

Q: Which “% inhibition at 10 μM” value ([2]; GluN2B-selective antagonist) does the source give for `CC(C(O)c1ccc(O)cc1)N1CCC(Cc2ccccc2)CC1` (stereo not drawn) [ifenprodil] here?
A: The value was 75%.

Q: How did the “% inhibition at 1 μM” value ([2]; non-competitive antagonist) turn out when `C[C@]12N[C@H](Cc3ccccc31)c1ccccc12` [MK801] was run?
A: The value was 100%.

Q: For `N#Cc1ccccc1-c1cc(-c2ccccn2)cn(-c2ccccc2)c1=O` [perampanel], which “% inhibition at 30 μM” value [3] is on record?
A: Its value is 91%.

Q: And the “% inhibition at 30 μM” value [4]?
A: Its value is 97%.

Q: `Cc1ccc(-c2nc3ccc(C)cn3c2CC(=O)N(C)C)cc1` [zolpidem] was tested. Which “% of control at 1 μM” value [5] did it give?
A: The value was 212%.
